Experimental data published in paper PMC6953607 (Nature microbiology, 2019).
In brackets after ≈: the same amount, converted by molar mass. One block for each compound: values may come before it.

Assays:
Mouse MTD = type: in vivo, C57BL/6 mice; conditions: IP, mice monitored 2 weeks
E. cloacae = test: MIC, micro-dilution broth; type: cell-based; conditions: E. cloacae ATCC 29893
K. pneumoniae = test: MIC, micro-dilution broth; type: cell-based
A. baumannii = test: MIC, micro-dilution broth; type: cell-based
P. aeruginosa PA01 = test: MIC, micro-dilution broth; type: cell-based
S. aureus ATCC29213 = test: MIC, micro-dilution broth; type: cell-based
E. coli = test: MIC, micro-dilution broth; type: cell-based; conditions: Escherichia coli, E. coli strains with intact outer membranes
E. coli MG1655 = test: Accumulation assay, LC-MS/MS; type: cell-based; conditions: E. coli MG1655, 50 μM compound, up to 2 h
S. aureus = conditions: cited from earlier work
[1] = open-label clinical trial ref 26; cited from earlier work
[2] = tested on: E. coli MG1655 harboring FabI variants; test: MIC against Debio-1452-NH3-resistant colonies; type: cell-based

Structure (SMILES): Cc1c(CN(C)C(=O)/C=C/c2cnc3c(c2)CC(CCN)C(=O)N3)oc2ccccc12.Cl (stereo not drawn) [Compound 3]
well tolerated single dose (Mouse MTD): 100 mg/kg

MIC (E. cloacae): >32 µg/mL
MIC (K. pneumoniae; K. pneumoniae S47889): >32 µg/mL
MIC (K. pneumoniae; Klebsiella pneumoniae, BAA1705, K. pneumoniae BAA-1705): > 32 µg/mL
MIC (A. baumannii; A. baumannii W41979): >32 µg/mL
MIC (A. baumannii; Acinetobacter baumannii, A. baumannii F19521): > 32 µg/mL
MIC (P. aeruginosa PA01): >32 µg/mL
Structure (SMILES): Cc1c(CN(C)C(=O)/C=C/c2cnc3c(c2)CC(NC(=O)OC(C)(C)C)C(=O)N3)oc2ccccc12 (stereo not drawn) [Compound 8]

Structure (SMILES): Cc1c(CN(C)C(=O)/C=C/c2cnc3c(c2)CCC(=O)N3)oc2ccccc12 [Debio-1452]
MIC (S. aureus ATCC29213; S. aureus ATCC 29213): 0.008 µg/mL (≈ 0.0213 µM)
fold increase in MIC in the presence of serum (S. aureus ATCC29213; S. aureus, human serum): 8 fold
MIC (E. coli): > 32 µg/mL
MIC (E. cloacae): >32 µg/mL
MIC (K. pneumoniae; K. pneumoniae BAA-1705): >32 µg/mL
MIC (K. pneumoniae; K. pneumoniae S47889): >32 µg/mL
MIC (A. baumannii; A. baumannii F19521): >32 µg/mL
MIC (A. baumannii; A. baumannii W41979): >32 µg/mL
MIC (P. aeruginosa PA01): >32 µg/mL
accumulation (E. coli MG1655): no statistically significant accumulation over negative controls
efficacy in animal models of S. aureus infections (S. aureus): marked efficacy
efficacy in patients [1]: marked efficacy

Structure (SMILES): Oc1cc(Cl)ccc1Oc1ccc(Cl)cc1Cl [Triclosan]
cross-resistance ([2]; A116V mutants resistant to Debio-1452-NH3): no cross-resistance
cross-resistance ([2]; G148S mutants resistant to Debio-1452-NH3): minimal cross-resistance
